The results in this text go back to US20100204295A1, “TREATMENT OF ALLERGIC DISEASE WITH IMMUNOMODULATOR COMPOUNDS” (SCICLONE PHARMACEUTICALS, INC., priority 2007, published 2010).

The experiment deals with BAL cells. Kind of experiment: BAL white blood cells and differentials, guinea pig model. It counts as in vivo, Dunkin-Hartley guinea pigs. The method, then: Animals were sensitized on day 0 ip with 50 mg/kg OVA. On Days 17, 18, 19, and 20, animals received an ip injection between 8 and 10 am with PBS, SCV-07 at 1 ug/kg, or SCV-07 at 10 ug/kg (Peptide treatment). Between 8 and 10 a.m. on Day 21, animals were administered peptide 2 hours before OVA or saline (NSS) aerosol challenge. 30 min before OVA or NSS aerosol challenge each animal was injected ip with an antihistamine (6.1 mg/kg pyrilamine maleate) to prevent death due to the anaphylactic response that accompanies aerosol OVA challenge. Animals were exposed to aerosol in pairs with either 1% OVA solution or NSS for 5 min in a plexiglass chamber (22×22×29 cm) using a DeVilbiss Model 35B Ultrasonic Nebulizer. Animals were observed during the total 5 min aerosolization and comments recorded. Within 22-24 hours after challenge, animals were euthanized, bled by cardiac puncture, lavaged and lung lobes removed for measurement of cellular infiltration. At the time of OVA or NSS challenge and euthanasia, animal weights ranged from approximately 350-550 g, with the average weight approximately 420 g. This experimental protocol is similar to that used in previously published studies (Regal and Fraser, 1996; Regal et al., 2000). Animals were euthanized with pentobarbital (100-200 mg/kg), bled by cardiac puncture, and lavaged with room temperature PBS. For bronchoalveolar lavage (BAL), the trachea was cannulated and 4 volumes of PBS were introduced into the tracheal cannula and gently withdrawn. Total lavage volume was 60 ml/kg. The BAL was centrifuged to sediment the cells, and the BAL cell pellet re-suspended in 1.0 ml PBS for determination of the total number of white blood cells (WBC) recovered in the BAL of each animal. The BAL supernatant was frozen at −70 C for determination of total protein recovered in the BAL supernatant using the method of Lowry et al. (1951). Total white blood cells in BAL were counted by standard methods in a hemacytometer using Turk's solution. Differential counts were obtained from cytospin preparations of BAL cells (3×10^4 cells) stained with a modified Wrights' stain (Diff Quik, American Scientific Products, McGraw Park, Ill.). Four hundred cells were counted and identified as eosinophils, neutrophils, or mononuclear cells. […] EPO activity from the homogenized lung after lavage was expressed as total OD/min from the left caudal lobe. MPO activity from the homogenized lung after lavage was expressed as total units of enzyme activity from the right caudal lobe. […] OD412 of the BAL supernatant was also determined to estimate the number of RBCS that were lysed during the lavage procedure and prior to re-suspension of the cells for counting. […]

`N[C@H](CCC(=O)N[C@@H](Cc1c[nH]c2ccccc12)C(=O)O)C(=O)O` [SCV-07, γ-D-glutamyl-L-tryptophan]: the “Change in BAL neutrophils from NSS to OVA” value (1 ug/kg, ANOVA contrast vs PBS treatment) is on record as “differed”. Further, the “Composition of cells in the BAL of control animals challenged with NSS” value (NSS aerosol, 1 or 10 ug/kg) is given as “did not significantly affect”. Further, for the setting “OVA aerosol challenge”, the “Total eosinophils in the BAL” value is on record as “did not change”. The “% eosinophils in the BAL” value (OVA aerosol challenge, not statistically significant) is reported as “tended to decrease”.
